{"source": "ChEMBL document CHEMBL2074246", "about": "“Distinct groups of multidrug resistance modulating agents are distinguished by competition of P-glycoprotein-specific antibodies” (Biochem Biophys Res Commun, 2004)", "type_in_all_cases": "functional, cell-based", "key": {"[1]": {"molecular_target": "T1, ATP-dependent translocase ABCB1 (Homo sapiens, UniProt P08183)", "T1 sequence (P08183 whole entry)": "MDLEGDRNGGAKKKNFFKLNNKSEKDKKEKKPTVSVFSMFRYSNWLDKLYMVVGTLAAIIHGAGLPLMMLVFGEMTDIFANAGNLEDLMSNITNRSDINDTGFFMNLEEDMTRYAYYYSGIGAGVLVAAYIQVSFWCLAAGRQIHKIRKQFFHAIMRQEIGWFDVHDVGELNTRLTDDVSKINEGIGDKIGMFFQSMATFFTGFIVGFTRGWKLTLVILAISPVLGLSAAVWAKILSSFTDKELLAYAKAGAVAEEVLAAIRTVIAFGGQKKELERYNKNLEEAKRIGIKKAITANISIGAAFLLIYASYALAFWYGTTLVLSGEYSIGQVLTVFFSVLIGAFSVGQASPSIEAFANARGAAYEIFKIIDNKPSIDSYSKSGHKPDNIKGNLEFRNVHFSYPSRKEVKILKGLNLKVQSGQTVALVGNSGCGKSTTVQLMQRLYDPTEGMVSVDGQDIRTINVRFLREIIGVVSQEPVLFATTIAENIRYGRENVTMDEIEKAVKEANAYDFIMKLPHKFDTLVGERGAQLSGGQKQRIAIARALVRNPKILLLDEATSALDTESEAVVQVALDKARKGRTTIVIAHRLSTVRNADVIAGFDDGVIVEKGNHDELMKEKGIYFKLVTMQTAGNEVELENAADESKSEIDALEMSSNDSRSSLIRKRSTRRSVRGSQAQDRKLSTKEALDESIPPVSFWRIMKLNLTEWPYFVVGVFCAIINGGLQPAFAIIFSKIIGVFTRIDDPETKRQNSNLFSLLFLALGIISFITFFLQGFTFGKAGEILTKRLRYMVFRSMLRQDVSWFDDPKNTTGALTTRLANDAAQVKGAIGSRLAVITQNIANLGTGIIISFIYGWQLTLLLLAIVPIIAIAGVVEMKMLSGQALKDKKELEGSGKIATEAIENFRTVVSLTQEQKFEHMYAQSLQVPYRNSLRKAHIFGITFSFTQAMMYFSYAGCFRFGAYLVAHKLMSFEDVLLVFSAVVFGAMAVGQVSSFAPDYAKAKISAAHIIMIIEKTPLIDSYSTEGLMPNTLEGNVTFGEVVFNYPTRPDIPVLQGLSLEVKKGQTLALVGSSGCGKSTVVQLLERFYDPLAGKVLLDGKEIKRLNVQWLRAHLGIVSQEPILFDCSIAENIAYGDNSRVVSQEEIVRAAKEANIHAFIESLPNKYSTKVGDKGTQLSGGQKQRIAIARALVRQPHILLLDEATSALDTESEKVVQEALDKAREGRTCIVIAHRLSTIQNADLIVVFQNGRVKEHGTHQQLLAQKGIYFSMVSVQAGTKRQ", "test": "TP_TRANSPORTER: increase in Calcein-AM intracellular accumulation (Calcein-AM: 0.5 uM, Colchicine: 100 uM) in MDR1-expressing NIH-3T3 cells", "details": "mouse, nih3t3, 100 µM"}, "[2]": {"molecular_target": "T1, ATP-dependent translocase ABCB1", "test": "TP_TRANSPORTER: increase in Calcein-AM intracellular accumulation (Calcein-AM: 0.5 uM, Tween 20: 1.4x10-3a%) in MDR1-expressing NIH-3T3 cells", "details": "mouse, nih3t3"}, "[3]": {"molecular_target": "T1, ATP-dependent translocase ABCB1", "test": "TP_TRANSPORTER: increase in Calcein-AM intracellular accumulation (Calcein-AM: 0.5 uM, Hoechst 33342: 50 uM) in MDR1-expressing NIH-3T3 cells", "details": "mouse, nih3t3, 50 µM"}, "[4]": {"molecular_target": "T1, ATP-dependent translocase ABCB1", "test": "TP_TRANSPORTER: increase in Calcein-AM intracellular accumulation (Calcein-AM: 0.5 uM, Imipramine: 20 uM) in MDR1-expressing NIH-3T3 cells", "details": "mouse, nih3t3, 20 µM"}, "[5]": {"molecular_target": "T1, ATP-dependent translocase ABCB1", "test": "TP_TRANSPORTER: increase in Calcein-AM intracellular accumulation (Calcein-AM: 0.5 uM, Reserpine: 40 uM) in MDR1-expressing NIH-3T3 cells", "details": "mouse, nih3t3, 40 µM"}, "[6]": {"molecular_target": "T1, ATP-dependent translocase ABCB1", "test": "TP_TRANSPORTER: increase in Calcein-AM intracellular accumulation (Calcein-AM: 0.5 uM, Desipramine: 20 uM) in MDR1-expressing NIH-3T3 cells", "details": "mouse, nih3t3, 20 µM"}, "[7]": {"molecular_target": "T1, ATP-dependent translocase ABCB1", "test": "TP_TRANSPORTER: increase in Calcein-AM intracellular accumulation (Calcein-AM: 0.5 uM, Progesterone: 10 uM) in MDR1-expressing NIH-3T3 cells", "details": "mouse, nih3t3, 10 µM"}, "[8]": {"molecular_target": "T1, ATP-dependent translocase ABCB1", "test": "TP_TRANSPORTER: increase in Calcein-AM intracellular accumulation (Calcein-AM: 0.5 uM, Vinblastine: 70 uM) in MDR1-expressing NIH-3T3 cells", "details": "mouse, nih3t3, 70 µM"}, "[9]": {"molecular_target": "T1, ATP-dependent translocase ABCB1", "test": "TP_TRANSPORTER: increase in Calcein-AM intracellular accumulation (Calcein-AM: 0.5 uM, Trimipramine: 20 uM) in MDR1-expressing NIH-3T3 cells", "details": "mouse, nih3t3, 20 µM"}, "[10]": {"molecular_target": "T1, ATP-dependent translocase ABCB1", "test": "TP_TRANSPORTER: increase in Calcein-AM intracellular accumulation (Calcein-AM: 0.5uM, Nifedipine:125uM) in MDR1-expressing NIH-3T3 cells", "details": "mouse, nih3t3, 125 µM"}, "[11]": {"molecular_target": "T1, ATP-dependent translocase ABCB1", "test": "TP_TRANSPORTER: increase in Calcein-AM intracellular accumulation (Calcein-AM: 0.5 uM, Genistein: 40 uM) in MDR1-expressing NIH-3T3 cells", "details": "mouse, nih3t3, 40 µM"}, "[12]": {"molecular_target": "T1, ATP-dependent translocase ABCB1", "test": "TP_TRANSPORTER: increase in Calcein-AM intracellular accumulation (Calcein-AM: 0.5 uM, Haloperidol: 80 uM) in MDR1-expressing NIH-3T3 cells", "details": "mouse, nih3t3, 80 µM"}, "[13]": {"molecular_target": "T1, ATP-dependent translocase ABCB1", "test": "TP_TRANSPORTER: increase in Calcein-AM intracellular accumulation (Calcein-AM: 0.5 uM, PSC-833: 8 uM) in MDR1-expressing NIH-3T3 cells", "details": "mouse, nih3t3, 8 µM"}, "[14]": {"molecular_target": "T1, ATP-dependent translocase ABCB1", "test": "TP_TRANSPORTER: increase in Calcein-AM intracellular accumulation (Calcein-AM: 0.5uM, Nonidet P-40:6x10-4a%) in MDR1-expressing NIH-3T3 cells", "details": "mouse, nih3t3"}, "[15]": {"molecular_target": "T1, ATP-dependent translocase ABCB1", "test": "TP_TRANSPORTER: increase in Calcein-AM intracellular accumulation (Calcein-AM: 0.5 uM, Lidocaine: 20 uM) in MDR1-expressing NIH-3T3 cells", "details": "mouse, nih3t3, 20 µM"}}}
{"smiles": "COc1cc2c(c(OC)c1OC)-c1ccc(OC)c(=O)cc1[C@@H](NC(C)=O)CC2", "note": "[COLCHICINE]", "values": [{"measurement": "Activity", "setting": "[1]", "result": "is not an inhibitor [-]"}]}
{"smiles": "CCCCCCCCCCCC(=O)OCCOCCOCCOCCOCCOCCOCCOCCOCCOCCOCCOCCOCCOCCOCCOCCOCCOCCOCCOCCOCC(OCCOCCOCCOCCOCCOCCOCCOCCOCCOCCOCCOCCOCCOCCOCCOCCOCCOCCOCCOCCO)C1OCC(OCCOCCOCCOCCOCCOCCOCCOCCOCCOCCOCCOCCOCCOCCOCCOCCOCCOCCOCCOCCO)C1OCCOCCOCCOCCOCCOCCOCCOCCOCCOCCOCCOCCOCCOCCOCCOCCOCCOCCOCCOCCO", "note": "(stereo not given) [TWEEN 20]", "values": [{"measurement": "Activity", "setting": "[2]", "result": "inhibitor [+]"}]}
{"smiles": "CCOc1ccc(-c2nc3cc(-c4nc5cc(N6CCN(C)CC6)ccc5[nH]4)ccc3[nH]2)cc1", "values": [{"measurement": "Activity", "setting": "[3]", "result": "is not an inhibitor [-]"}]}
{"smiles": "CN(C)CCCN1c2ccccc2CCc2ccccc21", "note": "[IMIPRAMINE]", "values": [{"measurement": "Activity", "setting": "[4]", "result": "inhibitor [+]"}]}
{"smiles": "COC(=O)[C@H]1[C@H]2C[C@@H]3c4[nH]c5cc(OC)ccc5c4CCN3C[C@H]2C[C@@H](OC(=O)c2cc(OC)c(OC)c(OC)c2)[C@@H]1OC", "note": "[RESERPINE]", "values": [{"measurement": "Activity", "setting": "[5]", "result": "inhibitor [+]"}]}
{"smiles": "CNCCCN1c2ccccc2CCc2ccccc21", "note": "[DESIPRAMINE]", "values": [{"measurement": "Activity", "setting": "[6]", "result": "inhibitor [+]"}]}
{"smiles": "CC(=O)[C@H]1CC[C@H]2[C@@H]3CCC4=CC(=O)CC[C@]4(C)[C@H]3CC[C@]12C", "note": "[PROGESTERONE]", "values": [{"measurement": "Activity", "setting": "[7]", "result": "inhibitor [+]"}]}
{"smiles": "CC[C@]1(O)C[C@@H]2CN(CCc3c([nH]c4ccccc34)[C@@](C(=O)OC)(c3cc4c(cc3OC)N(C)[C@H]3[C@@](O)(C(=O)OC)[C@H](OC(C)=O)[C@]5(CC)C=CCN6CC[C@]43[C@@H]65)C2)C1", "note": "[VINBLASTINE]", "values": [{"measurement": "Activity", "setting": "[8]", "result": "inhibitor [+]"}]}
{"smiles": "CC(CN(C)C)CN1c2ccccc2CCc2ccccc21", "note": "(stereo not given) [TRIMIPRAMINE]", "values": [{"measurement": "Activity", "setting": "[9]", "result": "inhibitor [+]"}]}
{"smiles": "COC(=O)C1=C(C)NC(C)=C(C(=O)OC)C1c1ccccc1[N+](=O)[O-]", "note": "[NIFEDIPINE]", "values": [{"measurement": "Activity", "setting": "[10]", "result": "inhibitor [+]"}]}
{"smiles": "O=c1c(-c2ccc(O)cc2)coc2cc(O)cc(O)c12", "note": "[GENISTEIN]", "values": [{"measurement": "Activity", "setting": "[11]", "result": "inhibitor [+]"}]}
{"smiles": "O=C(CCCN1CCC(O)(c2ccc(Cl)cc2)CC1)c1ccc(F)cc1", "note": "[HALOPERIDOL]", "values": [{"measurement": "Activity", "setting": "[12]", "result": "inhibitor [+]"}]}
{"smiles": "C/C=C/C[C@@H](C)C(=O)[C@H]1C(=O)N[C@@H](C(C)C)C(=O)N(C)CC(=O)N(C)[C@@H](CC(C)C)C(=O)N[C@@H](C(C)C)C(=O)N(C)[C@@H](CC(C)C)C(=O)N[C@@H](C)C(=O)N[C@H](C)C(=O)N(C)[C@@H](CC(C)C)C(=O)N(C)[C@@H](CC(C)C)C(=O)N(C)[C@@H](C(C)C)C(=O)N1C", "note": "[VALSPODAR]", "values": [{"measurement": "Activity", "setting": "[13]", "result": "inhibitor [+]"}]}
{"smiles": "CC(C)(C)CC(C)(C)c1ccc(OCCOCCO)cc1", "values": [{"measurement": "Activity", "setting": "[14]", "result": "inhibitor [+]"}]}
{"smiles": "CCN(CC)CC(=O)Nc1c(C)cccc1C", "note": "[LIDOCAINE]", "values": [{"measurement": "Activity", "setting": "[15]", "result": "is not an inhibitor [-]"}]}
